From US20240417407A1, “FUROINDAZOLE DERIVATIVES AS GPR84 ANTAGONISTS” (Bayer Aktiengesellschaft, priority 2021, published 2024) come the findings set out here.

The term IC50 denotes the point on the concentration scale where inhibition reaches its midpoint.

T1 sequence (Q9NQS5 whole entry): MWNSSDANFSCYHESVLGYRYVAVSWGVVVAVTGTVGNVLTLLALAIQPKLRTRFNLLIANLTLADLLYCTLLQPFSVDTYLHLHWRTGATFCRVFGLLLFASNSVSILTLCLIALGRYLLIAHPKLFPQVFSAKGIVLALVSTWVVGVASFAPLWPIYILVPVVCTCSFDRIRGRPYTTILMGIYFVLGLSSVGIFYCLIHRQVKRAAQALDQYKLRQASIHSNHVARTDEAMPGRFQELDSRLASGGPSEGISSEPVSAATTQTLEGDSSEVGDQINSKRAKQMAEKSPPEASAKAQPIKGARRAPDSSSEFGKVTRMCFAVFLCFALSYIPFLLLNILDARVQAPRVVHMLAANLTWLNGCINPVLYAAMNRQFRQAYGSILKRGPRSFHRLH

This test addresses T1, human GPR84 receptor (Homo sapiens, UniProt Q9NQS5).
T1 construct: frozen aliquots prepared by acCELLerate; host or cells: CHO-K1
The test is described as follows: cAMP HTRF assay for identification of cellular GPR84 antagonists. It counts as cell-based. The note with it: CHO-K1 cells stably expressing human GPR84; Forskolin plus agonist 6-OAU; cAMP HTRF readout; average or median values. The text has this:
cAMP HTRF® Assay for Identification of Cellular GPR84 Antagonists
By using a Homogenous Time-Resolved Fluorescence (HTRF®) based assay (#62AM5PEJ, Cisbio, Condolet, France) the inhibition of the Gi-coupled GPR84 receptor can be detected. CHO-K1 cells stably expressing human GPR84 receptor (purchased from DiscoveRx, now Eurofins) were used and treated with Forskolin (F6886, Sigma, Germany) to stimulate membrane adenylyl cyclases and thereby unspecific cAMP formation. Activation of the Gi-coupled GPR84 by a natural or small molecule agonist (e.g. 6-n-octyl aminouracile, inhouse) results in inhibition of cellular cAMP formation which can be released again by antagonists to this receptor. Detection and quantification of cellular cAMP levels in this HTRF assay is achieved by interaction between a fluorescent cAMP tracer (cAMP-d2) and an Eu-cryptate labelled anti-cAMP antibody. Following excitation at 337 nm this pairing allows for the generation of a fluorescence resonance energy transfer (FRET) between the partners and results in FRET induced emissions at 665 nm and 620 nm, the latter representing background signal by Eu-cryptate labelled anti-cAMP antibody. Maximal signal is obtained in the absence of any cellular cAMP (no competition for the binding of the tracer to the antibody). Given the combination of the Gi coupling properties of GPR84 and the competitive nature of the detection system agonist treatment should result in an increase in the HTRF signal due to lowered cAMP levels. Any signal decrease in the presence of Forskolin, agonist and compound is indicative of antagonist mediated abrogation of GPR84 signalling.
For the assay, frozen aliquots of CHO-K1 cells expressing hGPR84 (prepared by acCELLerate, Hamburg, Germany) were thawed and a cell suspension (1.67E+06 cells/mL) in assay media (Ham's F12 Nutrient Mix, Thermo Fisher Scientific, Waltham, USA; 5% fetal calf serum, Biomol, Hamburg, Germany) containing cAMP-d2 (dilution 1:20, supplied with the kit #62AM5PEJ, Cisbio, Condolet, France) was prepared. After recovery of cells for 20 minutes at 37° C., 3 μL/well cell suspension including cAMP-d2 were added to a pre-dispensed assay plate (Greiner Bio-One, Kremsmuenster, Austria) containing 50 nl/well test compound in 100% DMSO or 100% DMSO as control. This was followed by a 30 minutes incubation step at room temperature. […] The reaction was stopped by addition of 3 μL/well lysis buffer containing cAMP Eu-Cryptate antibody (dilution 1:20) (both supplied with the kit #62AM5PEJ, Cisbio, Condolet, France). To enable complete lysis, plates were incubated for 60 minutes at room temperature before measurement in an HTRF reader, e.g. a PHERAstar (BMG Labtech, Ortenberg, Germany).
From the fluorescence emissions at 665 nm (FRET) and at 620 nm (background signal of Eu-cryptate) the ratio (emission at 665 nm divided by emission at 620 nm×10000) was calculated and the data were normalized (reaction without test compound, only 100% DMSO=0% inhibition; all other assay components except agonist=100% inhibition). For dose response testing on the same microtiter plate, compounds were tested at 11 different concentrations in the range of 20 μM to 0.07 nM (20 μM, 5.7 μM, 1.6 μM, 0.47 μM, 0.13 μM, 38 nM, 11 nM, 3.1 nM, 0.89 nM, 0.25 and 0.07 nM; dilution series prepared before the assay at the level of the 100-fold conc. stock solutions by serial 1:3.5 dilutions in 100% DMSO) in duplicate values for each concentration. IC50 values were calculated by 4-parameter fitting using a commercial software package (Genedata Screener, Basel, Switzerland).
Examples were tested in selected biological assays one or more times. […]
For `CC1CCC(CNC(=O)c2oc3ccc4cn(C[C@H]5COCCO5)nc4c3c2C(F)(F)F)O1` (mixture of isomers) [Example 7, 2-{[(2S)-1,4-dioxan-2-yl]methyl}-N-{[(2RS,5RS)-5-methyltetrahydrofuran-2-yl]methyl}-8-(trifluoromethyl)-2H-furo[2,3-g]indazole-7-carboxamide], the IC50 stood at 13 nM.

For `CC1(C)COC(CNC(=O)c2oc3ccc4cn(C[C@H]5COCCO5)nc4c3c2C(F)(F)F)C1` (mixture of isomers) [Example 5], the IC50 was determined as 9 nM.

Turning to `O=C(NCC1CC(F)(F)CO1)c1oc2ccc3cn(C[C@H]4COCCO4)nc3c2c1C(F)(F)F` (mixture of isomers) [Example 6], the IC50 amounted to 11 nM.

With `O=C(NC[C@@H]1COCCO1)c1oc2ccc3cn(C[C@H]4COCCO4)nc3c2c1C(F)(F)F` [Example 1, N-{[(2R)-1,4-dioxan-2-yl]methyl}-2-{[(2S)-1,4-dioxan-2-yl]methyl}-8-(trifluoromethyl)-2H-furo[2,3-g]indazole-7-carboxamide], the IC50 was determined as 16 nM.

Turning to `O=C(NC[C@@H]1CCCO1)c1oc2ccc3cn(C[C@H]4COCCO4)nc3c2c1C(F)(F)F` [Example 2], the IC50 stood at 7 nM.

Turning to `Cc1ccc(Cn2cc3ccc4oc(C(=O)NC[C@@H]5COCCO5)c(C(F)(F)F)c4c3n2)cn1` [Example 3, N-{[(2R)-1,4-dioxan-2-yl]methyl}-2-[(6-methylpyridin-3-yl)methyl]-8-(trifluoromethyl)-2H-furo[2,3-g]indazole-7-carboxamide], the IC50 came to 7 nM.

`Cc1ccc(Cn2cc3ccc4oc(C(=O)NC[C@@H]5CCCO5)c(C(F)(F)F)c4c3n2)cn1` [Example 4]: the IC50 is 9 nM.

Regarding `O=C(NCCC1CC1)c1oc2ccc3cn(C[C@H]4COCCO4)nc3c2c1C(F)(F)F` [Example 8], the IC50 amounted to 1040 nM.

For the molecule `CS(=O)(=O)CCNC(=O)c1oc2ccc3cn(C[C@H]4COCCO4)nc3c2c1C(F)(F)F` [Example 9], the IC50 came to 3490 nM.

As for `O=C(NCc1cocn1)c1oc2ccc3cn(C[C@H]4COCCO4)nc3c2c1C(F)(F)F` [Example 10], the IC50 came to 100 nM.

As for `Cn1cnc(CNC(=O)c2oc3ccc4cn(C[C@H]5COCCO5)nc4c3c2C(F)(F)F)c1` [Example 11], the concentration for half-maximal inhibition (IC50) was 75 nM.

Take `O=C(NCc1nccs1)c1oc2ccc3cn(C[C@H]4COCCO4)nc3c2c1C(F)(F)F` [Example 12]: the IC50 is 18 nM.

For `O=C(NCc1cncs1)c1oc2ccc3cn(C[C@H]4COCCO4)nc3c2c1C(F)(F)F` [Example 13], the IC50 amounted to 490 nM.

For `O=C(NCc1ncccn1)c1oc2ccc3cn(C[C@H]4COCCO4)nc3c2c1C(F)(F)F` [Example 14], the IC50 is 48 nM.

For the molecule `O=C(NCc1cnccn1)c1oc2ccc3cn(C[C@H]4COCCO4)nc3c2c1C(F)(F)F` [Example 15], the IC50 amounted to 49 nM.

As to `O=C(NCc1ccncn1)c1oc2ccc3cn(C[C@H]4COCCO4)nc3c2c1C(F)(F)F` [Example 16], the IC50 amounted to 120 nM.

Turning to `O=C(NCc1cccnn1)c1oc2ccc3cn(C[C@H]4COCCO4)nc3c2c1C(F)(F)F` [Example 17], the IC50 was 460 nM.

Take `Cc1ccc(CNC(=O)c2oc3ccc4cn(C[C@H]5COCCO5)nc4c3c2C(F)(F)F)nc1` [Example 18, 2-{[(2S)-1,4-dioxan-2-yl]methyl}-N-[(5-methylpyridin-2-yl)methyl]-8-(trifluoromethyl)-2H-furo[2,3-g]indazole-7-carboxamide]: the IC50 was found to be 7 nM.

Take `Cc1ccnc(CNC(=O)c2oc3ccc4cn(C[C@H]5COCCO5)nc4c3c2C(F)(F)F)c1` [Example 19, 2-{[(2S)-1,4-dioxan-2-yl]methyl}-N-[(4-methylpyridin-2-yl)methyl]-8-(trifluoromethyl)-2H-furo[2,3-g]indazole-7-carboxamide]: the IC50 worked out at 53 nM.

As for `Cc1cnc(CNC(=O)c2oc3ccc4cn(C[C@H]5COCCO5)nc4c3c2C(F)(F)F)cn1` [Example 20, 2-{[(2S)-1,4-dioxan-2-yl]methyl}-N-[(5-methylpyrazin-2-yl)methyl]-8-(trifluoromethyl)-2H-furo[2,3-g]indazole-7-carboxamide], the IC50 stood at 18 nM.

As for `Cc1ccc(CNC(=O)c2oc3ccc4cn(C[C@H]5COCCO5)nc4c3c2C(F)(F)F)nn1` [Example 21], the IC50 amounted to 350 nM.

Regarding `N#Cc1ccc(CNC(=O)c2oc3ccc4cn(C[C@H]5COCCO5)nc4c3c2C(F)(F)F)nc1` [Example 22], the IC50 amounted to 13 nM.

For the molecule `N#Cc1ccnc(CNC(=O)c2oc3ccc4cn(C[C@H]5COCCO5)nc4c3c2C(F)(F)F)c1` [Example 23], the IC50 was determined as 250 nM.

Consider `COc1cccc(CNC(=O)c2oc3ccc4cn(C[C@H]5COCCO5)nc4c3c2C(F)(F)F)n1` [Example 24], for which the IC50 came to 400 nM.

Turning to `O=C(NCCn1ccnc1)c1oc2ccc3cn(C[C@H]4COCCO4)nc3c2c1C(F)(F)F` [Example 25], the IC50 worked out at 13000 nM.

For `Cc1cn(CCNC(=O)c2oc3ccc4cn(C[C@H]5COCCO5)nc4c3c2C(F)(F)F)nn1` [Example 26], the IC50 was 14000 nM.

Turning to `O=C(NCCc1ccccn1)c1oc2ccc3cn(C[C@H]4COCCO4)nc3c2c1C(F)(F)F` [Example 27, 2-{[(2S)-1,4-dioxan-2-yl]methyl}-N-[2-(pyridin-2-yl)ethyl]-8-(trifluoromethyl)-2H-furo[2,3-g]indazole-7-carboxamide], the IC50 worked out at 630 nM.

As for `O=C(NCCc1cccnc1)c1oc2ccc3cn(C[C@H]4COCCO4)nc3c2c1C(F)(F)F` [Example 28, 2-{[(2S)-1,4-dioxan-2-yl]methyl}-N-[2-(pyridin-3-yl)ethyl]-8-(trifluoromethyl)-2H-furo[2,3-g]indazole-7-carboxamide], the IC50 was 3580 nM.

Consider `Cc1cc2oc(C(=O)NC[C@@H]3CCCO3)c(C(F)(F)F)c2c2nn(Cc3ccccn3)cc12` [Example 29], for which the IC50 was 16 nM.

With `Cc1cc2oc(C(=O)NC[C@@H]3COCCO3)c(C(F)(F)F)c2c2nn(Cc3ccccn3)cc12` [Example 30], the IC50 came to 26 nM.

As to `Cc1cc2oc(C(=O)NC[C@@H]3CCCO3)c(C(F)(F)F)c2c2nn(Cc3ccncc3)cc12` [Example 31], the 50% inhibitory concentration (IC50) was 13 nM.

`Cc1cc2oc(C(=O)NCc3ncco3)c(C(F)(F)F)c2c2nn(Cc3ccccn3)cc12` [Example 33]: the concentration for half-maximal inhibition (IC50) is 100 nM.

For the molecule `Cc1cc2oc(C(=O)NCc3ccn(C)n3)c(C(F)(F)F)c2c2nn(Cc3ccccn3)cc12` [Example 34], the IC50 was determined as 150 nM.

With `Cc1ccc(Cn2cc3c(C)cc4oc(C(=O)NC[C@@H]5CCCO5)c(C(F)(F)F)c4c3n2)nc1` [Example 35], the IC50 stood at 4 nM.

With `Cc1ccc(Cn2cc3c(C)cc4oc(C(=O)NC[C@@H]5COCCO5)c(C(F)(F)F)c4c3n2)nc1` [Example 36, N-{[(2R)-1,4-dioxan-2-yl]methyl}-4-methyl-2-[(5-methylpyridin-2-yl)methyl]-8-(trifluoromethyl)-2H-furo[2,3-g]indazole-7-carboxamide], the IC50 turned out to be 5 nM.

On to `Cc1ccc(Cn2cc3c(C)cc4oc(C(=O)NCc5ncco5)c(C(F)(F)F)c4c3n2)nc1` [Example 37, 4-methyl-2-[(5-methylpyridin-2-yl)methyl]-N-[(1,3-oxazol-2-yl)methyl]-8-(trifluoromethyl)-2H-furo[2,3-g]indazole-7-carboxamide], for which the IC50 was 18 nM.

As to `Cc1cc2oc(C(=O)NC[C@@H]3CCCO3)c(C(F)(F)F)c2c2nn(C[C@H]3COCCO3)cc12` [Example 38], the IC50 is 21 nM.
